Experimental data taken from patent publication US5723464A, “Piperazine derivatives” (American Home Products Corporation, priority 1994, dated 1998).

Key:
5-HT1A receptor [1] = biological target: T1, 5-HT1A receptor (Rattus norvegicus, UniProt P19327); test: 5-HT1A receptor binding affinity in rat hippocampal membrane homogenate; set-up: in rat hippocampal membrane homogenate; from tissue; host or cells: rat hippocampal membrane homogenate; details: for IC50: rat hippocampal membrane homogenate; for Ratio 5HT1A / α1 (binding selectivity): ratio of 5-HT1A binding to α1 binding
T1 sequence (P19327 1-422): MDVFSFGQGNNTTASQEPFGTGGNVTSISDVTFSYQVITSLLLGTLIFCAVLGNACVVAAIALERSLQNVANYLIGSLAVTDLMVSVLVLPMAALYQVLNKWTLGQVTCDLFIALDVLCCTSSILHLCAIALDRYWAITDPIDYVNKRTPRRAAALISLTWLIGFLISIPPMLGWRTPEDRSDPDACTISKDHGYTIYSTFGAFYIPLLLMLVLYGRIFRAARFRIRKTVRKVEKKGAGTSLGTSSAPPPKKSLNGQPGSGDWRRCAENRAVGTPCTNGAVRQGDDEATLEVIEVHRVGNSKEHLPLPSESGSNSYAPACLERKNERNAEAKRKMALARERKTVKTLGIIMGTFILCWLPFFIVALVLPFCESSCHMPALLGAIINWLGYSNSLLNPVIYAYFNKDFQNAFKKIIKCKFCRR
Protocol: The compounds were tested for 5-HT1A binding affinity (column 2) in rat hippocampal membrane homogenate by the method of B. S. Alexander and M. D. Wood, J. Pharm. Pharmacol., 1988, 40, 888-891.

5-HT1A receptor [2] = biological target: T1, 5-HT1A receptor; test: Oral 5-HT1A receptor antagonist activity: antagonism of 8-OH-DPAT syndrome in rats; format: in vivo
Protocol: 5-HT1A receptor antagonist activity (columns 5 and 6) is assessed by the ability of the selective 5-HT1A receptor agonist, 8-OH-DPAT, to induce the `8-OH-DPAT syndrome` in rats characterised by extended flat body posture, forepaw treading and hyperlocomotion. The 8-OH-DPAT syndrome is scored as present (definite syndrome response) or absent (equivocal or no syndrome response) during the period 0-5 min following intravenous (i.v.) administration of the test agonist via a lateral tail vein.
A range of doses, on a logarithmic scale and encompassing the expected ED50, were chosen for the test agonist following preliminary evaluation. […]
Test antagonists were administered orally (p.o.) 60 min, before i.v. administration of 8-OH-DPAT. ED50 values for 8-OH-DPAT were determined for the different pretreatment groups using the sequential up/down procedure as described above.
The response to the selective 5-HT1A receptor agonist, 8-OH-DPAT, is represented as an ED50 value for induction of the 8-OH-DPAT syndrome, which is determined using the sequential up/down analysis following intravenous administration. 5-HT1A antagonist activity is determined by the ability of the test compound to antagonise the response to 8-OH-DPAT, i.e. to increase the ED50 for induction of the 8-OH-DPAT syndrome compared with vehicle pretreatment. […]

α1 receptor = α1 receptor binding affinity
Protocol: The compounds were tested for α1 binding affinity (column 3) by the procedure of A. L. Marrow et al, Mol. Pharmacol., 1986, 29, 321.

Row | Compound | IC50 (5-HT1A receptor [1]) [nM] | Ratio 5HT1A / α1 (binding selectivity) (5-HT1A receptor [1]) | 5-HT1A antagonist Ratio (ED50 antagonist @ 3mg/kg po)/ED50 vehicle (5-HT1A receptor [2]; ED50 of 8-OH-DPAT (i.v.) after test compound 3 mg/kg p.o. divided by ED50 after vehicle, rats) | 5-HT1A antagonist oral activity (in words) (5-HT1A receptor [2]; oral, compared to compounds of EP-A-512755) | 5-HT1A binding affinity (in words) (5-HT1A receptor [1]) | 5-HT1A/α1 selectivity (in words) (5-HT1A receptor [1]; binding affinity at 5-HT1A compared to α1 receptors) | IC50 (α1 receptor) [nM]
1 | C[C@H](CN(C(=O)C1CCCCC1)c1ccccn1)N1CCN(c2cccc3[nH]ccc23)CC1 [Compound A2, (R)-N-(2-methyl-2-(4-indolyl-1-piperazinyl)ethyl)-N-(2-pyridyl)-cyclohexanecarboxamide] | 6.8 | 142.5 | – | – | – | – | –
2 | C[C@H](CN1CCN(c2cccc3[nH]ccc23)CC1)N(C(=O)C1CCCCC1)c1ccccn1 [Compound A1, (R)-N-(1-methyl-2-(4-indolyl-1-piperazinyl)ethyl)-N-(2-pyridyl)-cyclohexanecarboxamide] | 4.3 | 564.4 | – | – | – | – | –
3 | O=C(C1CCCCC1)N(CCN1CCN(c2cccc3[nH]ccc23)CC1)c1ccccn1 [Compound A3] | 3.2 | 317.5 | 34.4 | surprising increase in oral activity as 5-HT1A antagonists | good 5-HT1A binding affinity | good | 1020
